In paper PMC11187126, “Structure and dynamics of the pyroglutamylated RF-amide peptide QRFP receptor GPR103” (Nature Communications, 2024):
Read-outs that look alike come from different tables or passages of the source. No end group written: not given here.

Biological target: T1, GPR103 E203^ECL2A (Homo sapiens, UniProt Q96P65, E203A)
T1 construct: we used human full-length QRFPR-encoding plasmids; expressed in transfected cells; host or cells: HEK293 cells, pCAGGS vector
T1 sequence (Q96P65 1-431 E203A): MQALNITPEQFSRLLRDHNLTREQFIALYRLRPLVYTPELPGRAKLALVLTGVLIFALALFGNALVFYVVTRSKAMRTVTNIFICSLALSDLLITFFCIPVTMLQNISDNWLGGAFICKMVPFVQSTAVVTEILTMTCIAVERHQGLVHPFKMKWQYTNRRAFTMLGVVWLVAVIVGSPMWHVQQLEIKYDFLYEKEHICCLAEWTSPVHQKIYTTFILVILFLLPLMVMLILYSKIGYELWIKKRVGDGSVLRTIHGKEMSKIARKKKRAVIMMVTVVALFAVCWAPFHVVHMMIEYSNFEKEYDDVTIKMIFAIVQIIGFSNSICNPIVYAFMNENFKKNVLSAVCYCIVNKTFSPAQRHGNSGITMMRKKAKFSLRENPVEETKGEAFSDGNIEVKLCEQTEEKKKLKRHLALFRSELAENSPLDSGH
Experiment: TGFα shedding assay; Exp. level >WT (1:1)
Format: cell-based
Experimental: For the TGFα shedding assay and the flow cytometry analysis, we used human full-length QRFPR-encoding plasmids. Specifically, GPR103 was N-terminally modified with an HA signal sequence followed by a FLAG epitope and then a flexible linker ([…]; the FLAG epitope is underlined) and inserted into the pCAGGS vector. Plasmid encoding GPR103 mutants were generated using Quickchange Site-Directed Mutagensis kit (Agilent).
The TGFα shedding assay was performed as described previously with minor modifications. Plasmid transfection was performed in a 6-well plate with a mixture of 500 ng (per well in a 6-well plate) AP-TGFα-encoding plasmid and 200 ng GPR103-encoding plasmid. After 1-day culture, the transfected cells were harvested by trypsinization, pelleted by centrifugation at 190 × g for 5 min, and washed once with 5 mM HEPES (pH 7.4)-containing Hank’s Balanced Salt Solution (HBSS). After centrifugation, the cells were resuspended in 8 mL of the HEPES-containing HBSS. The cell suspension was seeded in a 96-well culture plate (cell plate) at a volume of 90 μL (per well hereafter) and incubated in a 37 °C incubator with 5% CO2 for 30 min. […] After spinning the cell plates at 190 × g for 2 min, 80 μL of conditioned media was transferred to an empty 96-well plate (conditioned media (CM) plate). Then, 80 μL of AP reaction solution (10 mM p-nitrophenylphosphate (p-NPP), 120 mM Tris-HCl (pH 9.5), 40 mM NaCl, and 10 mM MgCl2) was dispensed into the cell plates and the CM plates. Absorbance at 405 nm of the plates was measured using a microplate reader (SpectraMax 340 PC384, Molecular Devices) before and after 1-h incubation at room temperature. Ligand-induced AP-TGFα release was calculated by subtracting spontaneous AP-TGFα release signal from ligand-induced AP-TGFα release signal. The AP-TGFα release signals were fitted to a four-parameter sigmoidal concentration–response curve, using the Prism 10 software (GraphPad Prism). For each replicate experiment, the pEC50 parameter (negative logarithmic values of EC50 values) of the individual GPR103 mutants were normalized to that of the wild-type GPR103 performed in parallel, and resulting ∆pEC50 values were used to denote ligand response activity of the mutants. […]
Exp. le vel: WT (1:5 0)Exp. le vel: WT (1:5 0)Exp. le vel: WT (1:5 0)Exp. le vel: WT (1:2 0)Exp. le vel: WT (1:2 0)Exp. le vel: WT (1:1 0) […]
L1 4N - t e r mA F2 5N - t e r mA I 2 6N - t e r mA Y 2 9N - t e r mA C 9 82 .5 7A T10 22 .6 1A Exp . l eve l: WT (1 :5)Exp . l evel : >WT (1 :1)Exp. le vel: WT (1:2 0)Exp. le vel: WT (1:2 0)Exp. le vel: WT (1:5 0)Exp . l eve l: WT (1 :1) […]
Exp. le vel: WT (1:1 0)Exp. le vel: WT (1:2 0) C 1 1 83 .2 5AExp. le vel: WT (1:5 0)Exp. le vel: WT (1:5 0)Exp. le vel: WT (1:2 0)Exp . l eve l: WT (1 :5) […]
Exp. le vel: WT (1:5 0)Exp. le vel: WT (1:1 0)Exp. le vel: WT (1:5 0) E203ECL2AExp . l evel : >WT (1 :1)Exp. le vel: WT (1:5 0)Exp. le vel: WT (1:5 0) […]
Exp . l eve l: WT (1 :1) F28Exp. le vel: WT (1:5 0) C 2 8 56 .4 7AExp. le vel: WT (1:2 0) WExp. le vel: WT (1:2 0) F28Exp. le vel: WT (1:5 0)Exp . l evel : >WT (1 :1) […]
Exp. le vel: WT (1:5 0)Exp. le vel: WT (1:5 0) C 3 2 77 .4 8AExp . l eve l: WT (1 :5)Exp . l evel : >WT (1 :1)Exp . l evel : >WT (1 :1) […]
Suppl eme nt ary Figure 1 | Mutational analysis of GPR103. […]
mutants. Data are presented as mean values ± SEM, normally n=3-5; dots), each performed in triplicate. b-d Cell-surface expression (b) and QRFP26-in-duced activation of GPR103 (c, d) were analyzed by the flow cytometry and the TGFα shedding assay, respectively. From the concentration–response curves (a), Emax (c) and ΔpEC50 (d) values relative to the wild type were calculated. Colors in the mutant bars indicate an expression level matching to that of titrated wild type. Statistical analyses were performed using the ordinary one-way ANOVA followed by Dunnett tests with the expression-matched […]

- Emax (Exp. #1): 96.63 % WT
- Emax (Exp. #2): 100.59 % WT
- Emax (Exp. #3): 99.12 % WT
- Emax (mean, read-out: Emax): 98.8%
- EC50 (n = 3): 288 nM
- Emax (n = 3, read-out: Emax): 101 ± 0.94%
Substance: TSGPLGNLAEELNGYSRKKGGFSFRF-NH2 [QRFP26]
